According to patent US9096591B2, “Tetracyclic compounds” (Medivation Technologies, Inc., priority 2007, dated 2015):
Read-outs that look alike come from different tables or passages of the source. Blank lines part the entries; values can stand above or below the compound they belong to.

Columns and labels:
[1] = target: T1, human recombinant adrenergic α2B receptor (Homo sapiens, UniProt P18089); assay: Adrenergic α2B radioligand binding ([3H]Rauwolscine); set-up: Inhibition of ligand binding, Adren. alpha2B: concentration or dose not given beside the values; conditions: percent inhibition of specific binding
T1 construct: expressed in transfected cells; host or cells: CHO-K1 cells
T1 sequence (P18089 1-450): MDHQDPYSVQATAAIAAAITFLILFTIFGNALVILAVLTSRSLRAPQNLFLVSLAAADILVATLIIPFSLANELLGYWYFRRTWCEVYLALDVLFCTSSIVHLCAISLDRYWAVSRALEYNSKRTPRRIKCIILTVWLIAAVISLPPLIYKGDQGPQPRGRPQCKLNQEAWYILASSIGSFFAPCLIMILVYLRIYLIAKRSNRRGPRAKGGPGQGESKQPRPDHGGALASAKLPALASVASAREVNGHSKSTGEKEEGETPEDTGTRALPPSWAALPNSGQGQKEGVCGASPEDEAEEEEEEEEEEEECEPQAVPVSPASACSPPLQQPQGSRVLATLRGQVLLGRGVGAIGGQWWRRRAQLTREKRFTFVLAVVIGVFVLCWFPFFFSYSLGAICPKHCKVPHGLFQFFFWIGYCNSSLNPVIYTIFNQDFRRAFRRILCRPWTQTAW
How it was run: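 Membranes from CHO-K1 cells expressing the receptor, in 50 mM Tris-HCl pH 7.4 with 12.5 mM MgCl2, 1 mM EDTA, 0.2% BSA, incubated with compounds and 2.5 nM [3H]Rauwolscine for 60 minutes at 25 °C.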

rat brain mitochondria = assay: Ca2+-induced swelling of mitochondria (MPT pore opening); type: biochemical, Wistar rats; conditions: for A540 increase in mitochondrial suspension after addition of 100 μM of compound: 100 μM compound
How it was run: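 Percoll-purified forebrain mitochondria from male Wistar rats, 0.2 mg protein in mannitol/sucrose/HEPES pH 7.4 with 0.8 μM rotenone, 5 mM succinate, 1 mM KH2PO4 at 30 °C. Swelling triggered by Ca2+ and read as A540 decrease; rate as ΔA540/min/mg from steepest tangent.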

[2] = system: synaptosomes of cortex of rat brain; assay: Glutamate-induced 45Ca2+ uptake into synaptosomes; type: biochemical, Wistar rats; conditions: for % Ca of control (control-100%), glutamate-induced 45Ca2+ uptake into synaptosomes: rat cortex synaptosomes
How it was run: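 Cortical synaptosomes (P2 fraction) from 9-10-day-old Wistar rats, ~1.5-2 mg/ml protein in HEPES-buffered saline with glucose, pH 7.4, stimulated 5 min with 200 μM glutamate at 37° C. 45Ca2+ uptake measured by filtration and scintillation counting; specific uptake with compound expressed as percentage of glutamate-induced uptake, each corrected for unstimulated uptake.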

[3] = read-out: IC50, Ca2+-induced (25-50 μM) swelling of brain mitochondria, rat brain mitochondria, Ca2+ 25-50 μM

SMILES: CN1CCc2c(c3cc(Cl)ccc3n2CCc2ccc(C(F)(F)F)nc2)C1 [Compound 250]
Inhibition of ligand binding, Adren. alpha2B [1]: 108%

IC50 (rat brain mitochondria; concentration reducing to 50% the initial rate of turbidity fall after calcium addition, read-out: IC50, decrease of calcium-induced swelling of brain mitochondria): ~6 µM | IC50 (rat brain mitochondria; [3]): 6.25 ± 6.25 µM
SMILES: CN1CCc2c(c3cc(Cl)ccc3n2CCc2nc(-c3ccccc3)cs2)C1 [Compound C1-8]
A540 increase in mitochondrial suspension after addition of 100 μM of compound (rat brain mitochondria; rat brain mitochondria): 25 rel.units | inhibition of glutamate-induced 45Ca2+ uptake into synaptosomes ([2]; 1-5 μM): ~14% | glutamate-induced 45Ca2+ uptake into synaptosomes of rat cortex, % of control ([2]; 50-100 μM): 122% | % Ca of control (control-100%), glutamate-induced 45Ca2+ uptake into synaptosomes ([2]; compound 0.1 μM): 99.2 ± 1.4% | % Ca of control (control-100%), glutamate-induced 45Ca2+ uptake into synaptosomes ([2]; compound 0.5 μM): 96.7 ± 2.4% | % Ca of control (control-100%), glutamate-induced 45Ca2+ uptake into synaptosomes ([2]; compound 1 μM): 86.1 ± 0.1% | % Ca of control (control-100%), glutamate-induced 45Ca2+ uptake into synaptosomes ([2]; compound 5 μM): 87.7 ± 2.7% | % Ca of control (control-100%), glutamate-induced 45Ca2+ uptake into synaptosomes ([2]; compound 10 μM): 99.3 ± 3.0% | % Ca of control (control-100%), glutamate-induced 45Ca2+ uptake into synaptosomes ([2]; compound 50 μM): 122.4 ± 1.6% | % Ca of control (control-100%), glutamate-induced 45Ca2+ uptake into synaptosomes ([2]; compound 100 μM): 121.7 ± 13.9%

SMILES: Cc1ccc2c(c1)c1c(n2CCc2ccc(C)nc2)CCN(C)C1 [Dimebon, dimebon, reference compound]
A540 increase in mitochondrial suspension after addition of 100 μM of compound (rat brain mitochondria; rat brain mitochondria): 1 rel.units | IC50 (rat brain mitochondria; [3]): 66 ± 26 µM | Inhibition of ligand binding, Adren. alpha2B [1]: 112% | concentration at which glutamate-induced 45Ca2+ uptake into synaptosomes was inhibited [2]: 0.25 to 10 µM | inhibition of glutamate-induced 45Ca2+ uptake into synaptosomes ([2]; 1 μM (maximal inhibition)): 40% | glutamate-induced 45Ca2+ uptake into synaptosomes of rat cortex, % Ca of control (control-100%) ([2]; C 0.1 μM): 120 ± 3.3% | glutamate-induced 45Ca2+ uptake into synaptosomes of rat cortex, % Ca of control (control-100%) ([2]; C 0.1 μM, listed as dimebon): 120.4% | glutamate-induced 45Ca2+ uptake into synaptosomes of rat cortex, % Ca of control (control-100%) ([2]; C 0.5 μM): 64.4 ± 12.4% | glutamate-induced 45Ca2+ uptake into synaptosomes of rat cortex, % Ca of control (control-100%) ([2]; C 1.0 μM): 61.3 ± 8.1% | glutamate-induced 45Ca2+ uptake into synaptosomes of rat cortex, % Ca of control (control-100%) ([2]; C 5.0 μM): 83.2 ± 4.1% | glutamate-induced 45Ca2+ uptake into synaptosomes of rat cortex, % Ca of control (control-100%) ([2]; C 10 μM): 89.3 ± 1.2% | glutamate-induced 45Ca2+ uptake into synaptosomes of rat cortex, % Ca of control (control-100%) ([2]; C 25 μM): 97.2 ± 8.5% | glutamate-induced 45Ca2+ uptake into synaptosomes of rat cortex, % Ca of control (control-100%) ([2]; C 50 μM): 98.7 ± 8.8% | glutamate-induced 45Ca2+ uptake into synaptosomes of rat cortex, % Ca of control (control-100%) ([2]; C 100 μM): 132 ± 2.9% | glutamate-induced 45Ca2+ uptake into synaptosomes of rat cortex, % Ca of control (control-100%) ([2]; C 100 μM, listed as dimebon): 132%
